Test results published in USRE48842E1, “Pyrimido-pyrrolo-oxazine-dione compound inhibitors of the cystic fibrosis transmembrane conductance regulator protein and uses therefor” (The Regents of the University of California, priority 2011, dated 2021).
Values after ≈ are worked out from the molar mass of the structure shown. Read-outs that look alike come from different tables or passages of the source.

Experiments:
[1] = molecular target: T1, human wildtype CFTR (Homo sapiens, UniProt P13569); assay: Fluorescence plate reader assay of CFTR inhibition (iodide influx); format: cell-based; parameters: expressed in transfected cells; host or cells: Fischer rat thyroid (FRT) cells; conditions: Determined by micro-plate reader assay; FRT cells co-expressing human wild type CFTR and YFP-H148Q
Method: Cell Culture and Plate Reader Assay of CFTR Inhibition—Fischer rat thyroid (FRT) cells co-expressing human wild type CFTR and the halide indicator YFP-H148Q were cultured in 96-well black-walled microplates (Corning Costar) at a density of 20,000 cells per well in Coon's modified F12 medium containing 10% fetal bovine serum, 2 mM L-glutamine, 100 U/mL penicillin and 100 μg/mL streptomycin. CFTR chloride conductance was assayed at 48 h after plating on a FluoStar fluorescence plate reader (BMG Lab Technologies) as described (see, e.g., Ma et al., J Clin Invest. 2002, supra). Each well was washed 3 times with PBS, leaving 60 μL PBS. Test compounds were added and incubated with the cells for 45 min. Then, 5 μL of a CFTR-activating cocktail (10 μM forskolin, 100 μM IBMX, 20 μM apigenin in PBS) was added. After 15 min, each well was assayed for iodide influx by recording fluorescence continuously (200 ms per point) for 2 s (baseline) and then for 10 s after rapid addition of 160 μL of isosmolar PBS in which 137 mM chloride was replaced by iodide. The initial rate of iodide influx was computed from fluorescence data by non-linear regression.
Initial testing of the compounds for the capability to inhibit CFTR was performed using a plate-reader assay in which iodide influx was measured in FRT cells co-expressing human wild type CFTR and the iodide-sensing yellow fluorescent protein YFP-H148Q/1152L. […] Table B below provides IC50 values for PPQ and BPO compounds.
The relative IC50 values obtained from the plate reader assay are useful for comparisons. Absolute IC50 values obtained from the plate-reader assay are approximate, generally underestimating compound potency because of assay non-linearities, pH-dependent YFP fluorescence, the use of iodide instead of chloride, and compound dilution at the start of the assay (see, e.g., Galietta et al., Am. J. Physiol. Cell Physiol. 281:C1734-42 (2001)).

[2] = molecular target: T1, human wildtype CFTR; assay: Short-circuit current analysis of CFTR inhibition in CFTR-expressing FRT cells; format: cell-based; parameters: expressed in transfected cells; host or cells: Fischer rat thyroid (FRT) epithelial cells on Snapwell inserts
Method: Short-Circuit Current—Snapwell inserts containing CFTR-expressing FRT cells were mounted in an Ussing chamber. The hemichambers contained 5 mL of buffer containing 75 mM NaCl and 75 mM Na gluconate (apical) and 150 mM NaCl (basolateral) (pH 7.3), and the basolateral membrane was permeabilized with 250 μg/mL amphotericin B, as described (see, e.g., Sonawane et al., FASEB J 2006, supra). Short-circuit current was recorded continuously using a DVC-1000 voltage clamp (World Precision Instruments) using Ag/AgCl electrodes and 3 M KCl agar bridges.
Current was measured in CFTR-expressing FRT cells in which the basolateral membrane was permeabilized and in the presence of a transepithelial chloride concentration gradient, so that current is a quantitative linear measure of CFTR function. CFTR was activated by forskolin, followed by serial additions of increasing concentrations of test compounds.
CFTR inhibition potency was measured by short-circuit current analysis in FRT epithelial cells expressing human CFTR in presence of a transepithelial chloride gradient and in which the basolateral membrane was permeabilized with amphotericin B. Under these conditions short-circuit current is proportional to CFTR chloride conductance.

[3] = Aqueous solubility; format: physicochemical
[4] = Mouse pharmacokinetics and renal accumulation (LC/MS); format: in vivo
Method: Mouse Pharmacokinetics and Renal Accumulation—A compound of structure (I) was formulated at 1 mg/mL in 5% DMSO, 2.5% Tween-80 and 2.5% PEG400 in H2O, based on formulations used for compounds of similar polarity and chemical properties. Male mice in a CD1 genetic background (age 8-10 weeks, 25-35 g) were administered 300 μL of the BPO-27 formulation by intraperitoneal injection. At specified times kidneys were removed following renal arterial perfusion with PBS. Kidneys were weighed, mixed with acetic acid (100 μl per 1 g tissue) and ethyl acetate (10 mL per 1 g tissue), and homogenized. The homogenate was centrifuged at 3,000 rpm for 15 min. Calibration standards were prepared in kidney homogenates from control mice to which was added known amounts of BPO-27. The ethyl acetate-containing supernatant was dried under nitrogen and the residue was reconstituted in acetonitrile:H2O (3:1) containing 0.1% formic acid. For analysis of blood and urine, fluids were diluted with equal volume of water and extracted with ethyl acetate. LC/MS analysis was carried out as described herein.
PPQ-102 was undetectable in serum, kidney, and urine at 30-60 min after intravenous bolus administration of 300 μg PPQ-102 in mice using an LC/MS assay with sensitivity better than 100 nM. […] To improve on the drug-like properties of PPQ-102, a series of compound analogs were synthesized and tested.
BPO-27 pharmacokinetics in mice was measured following bolus intraperitoneal administration in an aqueous formulation in 5% DMSO, 2.5% Tween-80 and 2.5% PEG400 in water. BPO-27 was measured by LC/MS in kidney, blood and urine. […] The assay was linear with a detection sensitivity of better than 100 nM BPO-27. […] FIG. 11C summarizes the deduced BPO-27 concentrations in kidney, blood and urine over time. The t1/2 for disappearance of the original compound was approximately 2 h.

[5] = short-circuit current, FRT cells expressing human CFTR, forskolin-stimulated, read-out: IC50 for inhibition of CFTR chloride conductance

T1 sequence (P13569 whole entry): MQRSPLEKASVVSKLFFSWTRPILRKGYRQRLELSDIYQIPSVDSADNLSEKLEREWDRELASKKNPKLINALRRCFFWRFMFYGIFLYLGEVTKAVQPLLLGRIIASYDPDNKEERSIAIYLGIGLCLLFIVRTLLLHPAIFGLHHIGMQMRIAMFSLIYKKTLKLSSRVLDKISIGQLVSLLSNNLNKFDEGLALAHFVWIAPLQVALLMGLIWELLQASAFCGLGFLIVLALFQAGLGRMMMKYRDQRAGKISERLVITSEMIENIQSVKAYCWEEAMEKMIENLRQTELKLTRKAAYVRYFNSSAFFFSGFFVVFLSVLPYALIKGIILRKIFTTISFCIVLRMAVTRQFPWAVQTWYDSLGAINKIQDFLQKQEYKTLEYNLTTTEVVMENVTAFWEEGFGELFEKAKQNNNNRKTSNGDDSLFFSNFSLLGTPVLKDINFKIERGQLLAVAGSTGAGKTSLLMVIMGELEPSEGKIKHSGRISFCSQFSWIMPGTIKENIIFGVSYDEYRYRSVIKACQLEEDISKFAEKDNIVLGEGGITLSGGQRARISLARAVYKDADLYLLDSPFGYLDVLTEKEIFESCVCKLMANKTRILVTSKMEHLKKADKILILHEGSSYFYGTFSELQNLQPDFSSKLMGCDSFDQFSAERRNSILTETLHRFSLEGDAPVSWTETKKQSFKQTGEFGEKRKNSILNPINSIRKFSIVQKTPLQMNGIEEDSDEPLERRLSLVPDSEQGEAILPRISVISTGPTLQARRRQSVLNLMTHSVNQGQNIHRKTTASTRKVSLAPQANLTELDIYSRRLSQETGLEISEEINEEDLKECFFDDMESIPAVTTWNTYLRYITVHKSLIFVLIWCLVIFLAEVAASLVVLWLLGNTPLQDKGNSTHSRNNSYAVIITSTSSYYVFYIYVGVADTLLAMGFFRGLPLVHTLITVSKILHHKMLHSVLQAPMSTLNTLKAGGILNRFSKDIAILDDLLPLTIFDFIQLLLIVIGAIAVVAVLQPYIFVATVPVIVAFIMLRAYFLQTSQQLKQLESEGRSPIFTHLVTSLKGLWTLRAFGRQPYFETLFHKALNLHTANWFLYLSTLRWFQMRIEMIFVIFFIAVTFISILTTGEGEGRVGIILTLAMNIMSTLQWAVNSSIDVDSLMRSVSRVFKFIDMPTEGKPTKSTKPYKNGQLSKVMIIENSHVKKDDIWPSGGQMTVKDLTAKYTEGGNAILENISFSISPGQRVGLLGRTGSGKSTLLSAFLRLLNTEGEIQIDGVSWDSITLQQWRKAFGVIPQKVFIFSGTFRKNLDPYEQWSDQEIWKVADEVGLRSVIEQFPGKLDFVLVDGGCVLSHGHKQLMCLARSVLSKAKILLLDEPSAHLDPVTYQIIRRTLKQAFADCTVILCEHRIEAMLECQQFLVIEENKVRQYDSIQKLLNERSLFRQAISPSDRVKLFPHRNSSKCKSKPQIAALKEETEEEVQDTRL

Cn1c(=O)c2c(-c3ccccc3)n3c(c2n(C)c1=O)C(c1ccc(Br)o1)Oc1ccc(C(=O)O)cc1-3 (racemic) [BPO-27, 6-(5-Bromofuran-2-yl)-7,9-dimethyl-8,10-dioxo-11-phenyl-7,8,9,10-tetrahydro-6H-benzo[b]pyrimido[4′,5′:3,4]pyrrolo[1,2-d][1,4]oxazine-2-carboxylic acid]
IC50 [1]: 40 nM
IC50 ([2]; Determined by short-circuit current assay, read-out: IC50 (μM)^B): 0.008 µM
IC50 [2, 5]: ~0.008 µM
solubility ([3]; pH 7.4 aqueous phosphate buffer, read-out: solubility): 17 µM (≈ 9.32 µg/mL)
half-life ([4]; male, CD1, mouse, in vivo, ip, 300 μg, mice, bolus intraperitoneal administration, read-out: t1/2 for disappearance of the original compound (converted)): ~2 h
compound concentration in kidney, blood and urine ([4]; mice, for many hours following single intraperitoneal dose): greater than 4 nM

Cc1ccc(C2Nc3ccccc3-n3c(-c4ccccc4)c4c(=O)n(C)c(=O)n(C)c4c32)o1 (stereo not shown) [PPQ-102, 7,9-Dimethyl-6-(5-methylfuran-2-yl)-11-phenyl-5,6-dihydropyrimido[4′,5′-3,4]pyrrolo[1,2-a]quinoxaline-8,10-(7H,9H)-dione, reference compound]
IC50 [1]: 250 nM
IC50 [2, 5]: 0.1 µM
solubility ([3]; albumin-free saline, saline or isotonic, read-out: water solubility): ~2 µM (≈ 0.877 µg/mL)
compound in serum, kidney, and urine ([4]; 30-60 min after intravenous bolus of 300 μg in mice, LC/MS sensitivity better than 100 nM): undetectable
